Assay results from ChEMBL document CHEMBL1132541, “New quaternary ammonium oxicam derivatives targeted toward cartilage: synthesis, pharmacokinetic studies, and antiinflammatory potency” (J Med Chem, 1999).

Test system: Rattus norvegicus
Assay: Maximal blood concentration after oral administration of a 30 umol/kg dose of compound
Type: ADME, organism-based
Parameters: dose 30 umol/kg, route oral
Details: in vivo

SMILES	Cmax
CN1C(C(=O)Nc2cccc[n+]2C)=C(O)c2ccccc2S1(=O)=O.[I-]	5.5 nmol/g
CN1C(C(=O)Nc2ccccn2)=C(O)c2ccccc2S1(=O)=O [PIROXICAM]	47.8 nmol/g
